The results in this text go back to ChEMBL document CHEMBL1141600, “Biphenyl versus phenylpyridazine derivatives: the role of the heterocycle in a series of acyl-CoA:cholesterol acyl transferase inhibitors” (J Med Chem, 2008).

The target in assay [1] is T1, Sterol O-acyltransferase 2 (Homo sapiens) (UniProt O75908).
T1 sequence (whole entry): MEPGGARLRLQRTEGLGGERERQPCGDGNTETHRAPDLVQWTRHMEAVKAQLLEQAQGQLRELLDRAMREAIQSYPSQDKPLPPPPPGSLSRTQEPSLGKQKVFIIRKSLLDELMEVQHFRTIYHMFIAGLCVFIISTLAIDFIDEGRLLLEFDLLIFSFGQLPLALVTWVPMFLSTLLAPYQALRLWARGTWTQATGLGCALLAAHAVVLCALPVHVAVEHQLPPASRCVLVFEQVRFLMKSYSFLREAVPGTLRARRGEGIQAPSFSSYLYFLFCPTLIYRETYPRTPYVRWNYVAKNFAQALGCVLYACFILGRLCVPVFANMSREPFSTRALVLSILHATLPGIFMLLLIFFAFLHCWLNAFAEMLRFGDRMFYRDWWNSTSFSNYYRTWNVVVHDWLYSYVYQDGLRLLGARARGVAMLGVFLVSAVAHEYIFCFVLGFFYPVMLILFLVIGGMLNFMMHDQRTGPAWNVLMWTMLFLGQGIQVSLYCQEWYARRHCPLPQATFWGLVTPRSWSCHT
As to the kind of experiment: Inhibition of human ACAT2 expressed in insect Hi5 cells at 50 uM. The settings on record: BTI-TN-5B1-4.

For assay [2], the target named is T2, Sterol O-acyltransferase 2 (Homo sapiens, UniProt O75908).
T2 sequence (O75908 whole entry): T1 sequence (whole entry)
Kind of assay: Inhibition of human ACAT2 expressed in insect Hi5 cells. Details: species or system BTI-TN-5B1-4.

Assay [3] addresses T3, Sterol O-acyltransferase 1 (Homo sapiens) (UniProt P35610).
T3 sequence (whole entry): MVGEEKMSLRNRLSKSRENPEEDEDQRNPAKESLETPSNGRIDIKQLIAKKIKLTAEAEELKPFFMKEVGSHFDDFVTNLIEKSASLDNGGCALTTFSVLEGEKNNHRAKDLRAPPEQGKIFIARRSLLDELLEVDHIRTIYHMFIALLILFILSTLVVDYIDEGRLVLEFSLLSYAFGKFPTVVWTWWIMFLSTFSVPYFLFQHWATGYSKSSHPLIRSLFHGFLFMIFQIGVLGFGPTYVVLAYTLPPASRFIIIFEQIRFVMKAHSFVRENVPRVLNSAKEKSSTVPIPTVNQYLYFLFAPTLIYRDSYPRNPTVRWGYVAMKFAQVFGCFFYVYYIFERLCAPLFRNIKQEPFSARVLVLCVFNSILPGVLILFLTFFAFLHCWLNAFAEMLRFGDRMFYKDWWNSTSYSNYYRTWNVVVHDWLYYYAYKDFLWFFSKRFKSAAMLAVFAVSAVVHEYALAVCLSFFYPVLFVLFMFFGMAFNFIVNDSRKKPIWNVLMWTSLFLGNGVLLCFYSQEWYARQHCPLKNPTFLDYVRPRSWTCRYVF
As to the kind of experiment: Inhibition of human ACAT1 expressed in insect Hi5 cells at 0.5 uM. The settings on record: BTI-TN-5B1-4.

The target in assay [4] is T1, Sterol O-acyltransferase 2 (Homo sapiens). As to the kind of experiment: Inhibition of human ACAT2 expressed in insect Hi5 cells at 0.5 uM. The conditions noted are these: BTI-TN-5B1-4.

Take `CCCCCCCCCNc1ccccc1-c1ccccc1`: the inhibition in assay [1] is -1%.

Regarding `CCCCCCCCNc1ccccc1-c1ccccc1`, the inhibition in assay [1] was -4%.

On to `CCCCCCCC(=O)Nc1cccc(-c2ccccc2)c1`, for which the inhibition in assay [1] is -4%.

As for `CCCCCCCCC(=O)Nc1ccccc1-c1ccccc1`, the inhibition in assay [1] amounted to 27%. Besides, half-maximal inhibition in assay [2] (IC50) required 414 µM.

Consider `CCCCCCCC(=O)Nc1ccccc1-c1ccccc1`, for which the inhibition in assay [1] stood at 39%. The compound further gave an IC50 in assay [2] of 230 µM.

In the case of `CCCCCCCCNc1ccc(-c2ccccc2)cc1`, the inhibition in assay [1] came out at 6%.

As to `CCCCCCCCCNc1ccc(-c2ccccc2)cc1`, the inhibition in assay [1] was found to be 18%.

`CCCCCCCCC(=O)Nc1ccc(-c2ccccc2)cc1`: the inhibition in assay [1] worked out at 20%.

On to `CCCCCCCCC(=O)Nc1cccc(-c2ccccc2)c1`, for which the inhibition in assay [1] was -6%.

For `CCCCCCCCCNc1cccc(-c2ccccc2)c1`, the inhibition in assay [1] was -8%.

For `CCCCCCCC(=O)Nc1ccc(-c2ccccc2)cc1`, the inhibition in assay [1] was determined as 11%.

Take `CCCCCCCC/C=C\CCC(CCCC(C(=O)Nc1ccccc1)C(C)C)C(C)C` (stereo not given): the inhibition amounted to 53% in assay [3] and 47% in assay [4].

The term inhibition denotes the drop in the measured response relative to a control, in per cent. By IC50 is commonly meant the midpoint of a concentration-inhibition curve. A low value points to greater potency.
